Assay results reported in US10562859B2, “Aryl sulfonamide compounds as carbonic anhydrase inhibitors and their therapeutic use” (SignalChem LifeSciences Corporation, priority 2015, dated 2020).

Tests used:
recombinant human CAIX = recombinant human CAIX (Homo sapiens, UniProt Q16790); assay: Stopped-flow CA-catalyzed CO2 hydration assay, CAIX; type: biochemical; conditions: pH 7.4, inhibitor and enzyme pre-incubated 15 minutes at room temperature
Description: (§1) An Applied Photophysics stopped-flow instrument was used for assaying the CA-catalyzed CO2 hydration activity. […] The CO2 concentrations ranged from 1.7 to 17 mM for the determination of the kinetic parameters and inhibition constants. For each inhibitor, at least six traces of the initial 5-10% of the reaction were used for determining the initial velocity. The uncatalyzed rates were determined in the same manner and subtracted from the total observed rates. Stock solutions of inhibitor (10 mM) were prepared in distilled-deionized water, and dilutions up to 0.01 nM were done thereafter with distilled-deionized water. Inhibitor and enzyme solutions were pre-incubated together for 15 minutes at room temperature prior to assay in order to allow for the formation of the E-I complex. The inhibition constants were obtained by nonlinear least-squares methods using PRISM 3, whereas the kinetic parameters for the uninhibited enzymes were from Lineweaver-Burk plots, and represent the mean from at least three different determinations.

recombinant human CAXII = recombinant human CAXII (Homo sapiens, UniProt O43570); assay: Stopped-flow CA-catalyzed CO2 hydration assay, CAXII; type: biochemical; conditions: pH 7.4, inhibitor and enzyme pre-incubated 15 minutes at room temperature
Chain of recombinant human CAXII (O43570 25-354): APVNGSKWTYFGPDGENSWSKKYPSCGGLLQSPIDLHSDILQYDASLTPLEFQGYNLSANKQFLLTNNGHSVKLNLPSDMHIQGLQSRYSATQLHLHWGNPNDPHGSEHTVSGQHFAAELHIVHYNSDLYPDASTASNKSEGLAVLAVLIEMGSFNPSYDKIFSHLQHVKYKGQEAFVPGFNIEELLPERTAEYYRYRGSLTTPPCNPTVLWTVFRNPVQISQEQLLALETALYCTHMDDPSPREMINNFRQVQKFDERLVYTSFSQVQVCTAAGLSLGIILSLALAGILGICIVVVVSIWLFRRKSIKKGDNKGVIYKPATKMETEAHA
Description: as §1

SMILES	Ki (nM) CAIX (recombinant human CAIX)	Ki (nM) CAXII (recombinant human CAXII)	Ki (recombinant human CAIX) [nM]	Ki (recombinant human CAXII) [nM]
NS(=O)(=O)c1ccc(N2CCN(c3cccc(F)c3)C2=O)cc1 [Example 1, 4-(3-(3-fluorophenyl)-2-oxoimidazolidin-1-yl)benzenesulfonamide]	++ (“++” represents the 100 nM<Ki<10 nM)	++ (“++” represents the 100 nM<Ki<10 nM)	–	–
COc1ccc(N2CCN(c3ccc(S(N)(=O)=O)cc3)C2=O)c(F)c1 [Example 25, 4-(3-(2-fluoro-4-methoxyphenyl)-2-oxoimidazolidin-1-yl)benzenesulfonamide]	–	++ (“++” represents the 100 nM<Ki<10 nM)	< 10	–
NS(=O)(=O)c1ccc(N2CCN(c3cc(C(F)(F)F)ccc3F)C2=O)cc1 [Example 13, 4-(3-(2-fluoro-5-(trifluoromethyl)phenyl)-2-oxoimidazolidin-1-yl)benzenesulfonamide]	–	–	< 10	< 10
NS(=O)(=O)c1ccc(N2CCN(c3cc(F)cc(F)c3)C2=O)cc1 [Example 23, 4-(3-(3,5-difluorophenyl)-2-oxoimidazolidin-1-yl)benzenesulfonamide]	–	–	< 10	< 10
Cc1cc(C)cc(N2CCN(c3ccc(S(N)(=O)=O)cc3)C2=O)c1 [Example 2, 4-(3-(3,5-dimethylphenyl)-2-oxoimidazolidin-1-yl)benzenesulfonamide]	++ (“++” represents the 100 nM<Ki<10 nM)	++ (“++” represents the 100 nM<Ki<10 nM)	–	–
NS(=O)(=O)c1ccc(N2CCN(c3ccc(Br)cc3F)C2=O)cc1 [Example 6, 4-(3-(4-bromo-2-fluorophenyl)-2-oxoimidazolidin-1-yl)benzenesulfonamide]	++ (“++” represents the 100 nM<Ki<10 nM)	++ (“++” represents the 100 nM<Ki<10 nM)	–	–
COCCOc1ccc(N2CCN(c3ccc(S(N)(=O)=O)cc3)C2=O)cc1 [Example 14, 4-(3-(4-(2-methoxyethoxy)phenyl)-2-oxoimidazolidin-1-yl)benzenesulfonamide]	–	–	< 10	< 10
NS(=O)(=O)c1ccc(N2CCN(c3cc(C(F)(F)F)ccc3Cl)C2=O)cc1 [Example 12, 4-(3-(2-chloro-5-(trifluoromethyl)phenyl)-2-oxoimidazolidin-1-yl)benzenesulfonamide]	–	–	< 10	< 10
NS(=O)(=O)c1ccc(N2CCN(c3ccc(F)cc3)C2=O)cc1 [Example 21, 4-(3-(4-fluorophenyl)-2-oxoimidazolidin-1-yl)benzenesulfonamide]	–	++ (“++” represents the 100 nM<Ki<10 nM)	< 10	–
NS(=O)(=O)c1ccc(N2CCN(Cc3ccc(F)cc3)C2=O)cc1 [Example 9, 4-(3-(4-fluorobenzyl)-2-oxoimidazolidin-1-yl)benzenesulfonamide]	++ (“++” represents the 100 nM<Ki<10 nM)	++ (“++” represents the 100 nM<Ki<10 nM)	–	–
NS(=O)(=O)c1ccc(N2CCN(c3ccc(Cl)cc3F)C2=O)cc1 [Example 7, 4-(3-(4-chloro-2-fluorophenyl)-2-oxoimidazolidin-1-yl)benzenesulfonamide]	–	++ (“++” represents the 100 nM<Ki<10 nM)	< 10	–
COc1cc(N2CCN(c3ccc(S(N)(=O)=O)cc3)C2=O)cc(OC)c1OC [Example 3, 4-(2-oxo-3-(3,4,5-trimethoxyphenyl)imidazolidin-1-yl)benzenesulfonamide]	–	++ (“++” represents the 100 nM<Ki<10 nM)	< 10	–
CCCCOc1ccc(N2CCN(c3ccc(S(N)(=O)=O)cc3)C2=O)c(F)c1 [Example 26, 4-(3-(4-butoxy-2-fluorophenyl)-2-oxoimidazolidin-1-yl)benzenesulfonamide]	–	++ (“++” represents the 100 nM<Ki<10 nM)	< 10	–
NS(=O)(=O)c1ccc(N2CCN(CC3CC3)C2=O)cc1 [Example 10, 4-(3-(cyclopropylmethyl)-2-oxoimidazolidin-1-yl)benzenesulfonamide]	–	–	< 10	< 10
CC(=O)c1ccc(N2CCN(c3ccc(S(N)(=O)=O)cc3)C2=O)cc1 [Example 17, 4-(3-(4-acetylphenyl)-2-oxoimidazolidin-1-yl)benzenesulfonamide]	–	–	< 10	< 10
NS(=O)(=O)c1ccc(N2CCN(C3CCCCC3)C2=O)cc1 [Example 5, 4-(3-cyclohexyl-2-oxoimidazolidin-1-yl)benzenesulfonamide]	++ (“++” represents the 100 nM<Ki<10 nM)	++ (“++” represents the 100 nM<Ki<10 nM)	–	–
NS(=O)(=O)c1ccc(N2CCN(c3ccc(F)c(F)c3)C2=O)cc1 [Example 24, 4-(3-(3,4-difluorophenyl)-2-oxoimidazolidin-1-yl)benzenesulfonamide]	–	++ (“++” represents the 100 nM<Ki<10 nM)	< 10	–
NS(=O)(=O)c1ccc(N2CCN(c3ccc(Cl)c(F)c3)C2=O)cc1 [Example 27, 4-(3-(4-chloro-3-fluorophenyl)-2-oxoimidazolidin-1-yl)benzenesulfonamide]	–	++ (“++” represents the 100 nM<Ki<10 nM)	< 10	–
N#Cc1ccc(N2CCN(c3ccc(S(N)(=O)=O)cc3)C2=O)cc1 [Example 16, 4-(3-(4-cyanophenyl)-2-oxoimidazolidin-1-yl)benzenesulfonamide]	–	–	< 10	< 10
CCCCOc1ccc(N2CCN(c3ccc(S(N)(=O)=O)cc3)C2=O)cc1 [Example 15, 4-(3-(4-butoxyphenyl)-2-oxoimidazolidin-1-yl)benzenesulfonamide]	–	++ (“++” represents the 100 nM<Ki<10 nM)	< 10	–
CN1CCN(c2ccc(N3CCN(c4ccc(S(N)(=O)=O)cc4)C3=O)c(F)c2)CC1 [Example 28.2, 4-(3-(2-fluoro-4-(4-methylpiperazin-1-yl)phenyl)-2-oxoimidazolidin-1-yl)benzenesulfonamide]	–	–	> 100000	< 10
NS(=O)(=O)c1ccc(N2CCN(C3CCCC3)C2=O)cc1 [Example 4, 4-(3-cyclopentyl-2-oxoimidazolidin-1-yl)benzenesulfonamide]	++ (“++” represents the 100 nM<Ki<10 nM)	++ (“++” represents the 100 nM<Ki<10 nM)	–	–
NS(=O)(=O)c1ccc(N2CCN(c3ccc(F)cn3)C2=O)cc1 [Example 28.1, 4-(3-(5-fluoropyridin-2-yl)-2-oxoimidazolidin-1-yl)benzenesulfonamide]	–	–	> 100000	> 100000
CC(C)c1ccccc1N1CCN(c2ccc(S(N)(=O)=O)cc2)C1=O [Example 11, 4-(3-(2-isopropylphenyl)-2-oxoimidazolidin-1-yl)benzenesulfonamide]	–	–	< 10	< 10
NS(=O)(=O)c1ccc(N2CCN(c3ccc(C(F)(F)F)cc3)C2=O)cc1 [Example 8, 4-(2-oxo-3-(4-(trifluoromethyl)phenyl)imidazolidin-1-yl)benzenesulfonamide]	–	–	< 10	< 10
NS(=O)(=O)c1ccc(N2CCN(c3ccc(N4CCOCC4)cc3F)C2=O)cc1 [Example 28.3, 4-(3-(2-fluoro-4-morpholinophenyl)-2-oxoimidazolidin-1-yl)benzenesulfonamide]	–	–	< 10	< 10
NS(=O)(=O)c1ccc(N2CCN(c3ccc(F)c(Cl)c3)C2=O)cc1 [Example 22, 4-(3-(3-chloro-4-fluorophenyl)-2-oxoimidazolidin-1-yl)benzenesulfonamide]	–	++ (“++” represents the 100 nM<Ki<10 nM)	< 10	–
